In patent US8247211B2, “Glycopeptide antibiotics” (American Cyanamid Company, priority 2001, dated 2012):
Values after ≈ are worked out from the molar mass of the structure shown.

How the values were obtained:
Assay in all cases: In vitro antibacterial evaluation: minimum inhibitory concentration (MIC), broth dilution method
Assay type in all cases: cell-based
Streptococcus sp. = system: Streptococcus sp.
In short: (§1)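 First, organisms are seeded at 5×10^5 CFU/mL into Muller-Hinton II […]. Next, antibiotic is applied across 64-0.06 μg/mL by broth dilution (NCCLS M7-A2). Finally, the lowest inhibitory concentration is recorded as MIC.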

Enterococcus sp. = system: Enterococcus sp.
In short: as §1

Staphylococcus sp. = settings: broth dilution, 18 hours at 35° C.
In short: as §1

Escherichia coli = settings: strain GC 4560
In short: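 Values are minimum inhibitory concentrations, meaning the smallest antibiotic concentration that stops growth of the organism. They come from broth dilution in Muller-Hinton II […] per NCCLS guidance (M7-A2), using 5×10^5 CFU/mL and concentrations from 64 to 0.06 μg/mL.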

[1] = broth dilution, inoculum 5×10^5 CFU/mL, 18 hours at 35° C.

## CCOc1cc(C2OCC3OC(OC4C(CO)OC(Oc5ccc(CC6NC(=O)C(C(C)c7ccccc7)NC(=O)CNC(=O)C(CO)NC(=O)C(C(O)C7CNC(=N)N7C7OC(CO)C(O)C(O)C7O)NC(=O)C(C(O)C7CNC(=N)N7)NC6=O)cc5)C(O)C4O)C(O)C(O)C3O2)ccc1[N+](=O)[O-] (stereo not drawn) [Example 167, Cyclo[glycyl-β-methylphenylalanyl-O-[4-O-[4,6-O-(3-ethoxy-4-nitrobenzylidene)hexopyranosyl]hexopyranosyl]tyrosyl-3-(2-iminoimidazolidin-4-yl)seryl-3-(3-hexopyranosyl-2-iminoimidazolidin-4-yl)serylseryl]]
Streptococcus sp.; [1]
  MIC Streptococcus agalactiae (GC 4564): 2 µg/mL (≈ 1.36 µM)
  MIC Streptococcus pneumoniae (ATCC 6301): 1 µg/mL (≈ 0.679 µM)
  MIC Streptococcus pneumoniae (GC 1894): 0.25 µg/mL (≈ 0.17 µM)
  MIC Streptococcus pneumoniae (GC 4565): 1 µg/mL (≈ 0.679 µM)
  MIC Streptococcus pyogenes (GC 4563): 1 µg/mL (≈ 0.679 µM)
Streptococcus sp.; strain ATCC 6301
  MIC Streptococcus pneumoniae (ATCC 6301): 1 µg/mL (≈ 0.679 µM)
Streptococcus sp.; strain GC 1894
  MIC Streptococcus pneumoniae (GC 1894): 0.25 µg/mL (≈ 0.17 µM)
Streptococcus sp.; strain GC 4563
  MIC Streptococcus pyogenes (GC 4563): 1 µg/mL (≈ 0.679 µM)
Streptococcus sp.; strain GC 4564
  MIC Streptococcus agalactiae (GC 4564): 2 µg/mL (≈ 1.36 µM)
Streptococcus sp.; strain GC 4565
  MIC Streptococcus pneumoniae (GC 4565): 1 µg/mL (≈ 0.679 µM)
Enterococcus sp.; [1]
  MIC Enterococcus avium (GC 4558): 32 µg/mL (≈ 21.7 µM)
  MIC Enterococcus faecalis (ATCC 29212): 32 µg/mL (≈ 21.7 µM)
  MIC Enterococcus faecalis (GC 2242): 32 µg/mL (≈ 21.7 µM)
  MIC Enterococcus faecalis (GC 2691): 32 µg/mL (≈ 21.7 µM)
  MIC Enterococcus faecalis (GC 3059): 32 µg/mL (≈ 21.7 µM)
  MIC Enterococcus faecalis (GC 4552): 32 µg/mL (≈ 21.7 µM)
  MIC Enterococcus faecalis (GC 4553): 32 µg/mL (≈ 21.7 µM)
  MIC Enterococcus faecalis (GC 4554): 32 µg/mL (≈ 21.7 µM)
  MIC Enterococcus faecalis (GC 6189): 32 µg/mL (≈ 21.7 µM)
  MIC Enterococcus faecium (GC 2243): 32 µg/mL (≈ 21.7 µM)
  MIC Enterococcus faecium (GC 4556): 32 µg/mL (≈ 21.7 µM)
  MIC Enterococcus faecium (GC 4557): 8 µg/mL (≈ 5.43 µM)
Enterococcus sp.; strain ATCC 29212
  MIC Enterococcus faecalis (ATCC 29212): 32 µg/mL (≈ 21.7 µM)
Enterococcus sp.; strain GC 2242
  MIC Enterococcus faecalis (GC 2242): 32 µg/mL (≈ 21.7 µM)
Enterococcus sp.; strain GC 2243
  MIC Enterococcus faecium (GC 2243): 32 µg/mL (≈ 21.7 µM)
Enterococcus sp.; strain GC 2691
  MIC Enterococcus faecalis (GC 2691): 32 µg/mL (≈ 21.7 µM)
Enterococcus sp.; strain GC 3059
  MIC Enterococcus faecalis (GC 3059): 32 µg/mL (≈ 21.7 µM)
Enterococcus sp.; strain GC 4552
  MIC Enterococcus faecalis (GC 4552): 32 µg/mL (≈ 21.7 µM)
Enterococcus sp.; strain GC 4553
  MIC Enterococcus faecalis (GC 4553): 32 µg/mL (≈ 21.7 µM)
Enterococcus sp.; strain GC 4554
  MIC Enterococcus faecalis (GC 4554): 32 µg/mL (≈ 21.7 µM)
Enterococcus sp.; strain GC 4556
  MIC Enterococcus faecium (GC 4556): 32 µg/mL (≈ 21.7 µM)
Enterococcus sp.; strain GC 4557
  MIC Enterococcus faecium (GC 4557): 8 µg/mL (≈ 5.43 µM)
Enterococcus sp.; strain GC 4558
  MIC Enterococcus avium (GC 4558): 32 µg/mL (≈ 21.7 µM)
Enterococcus sp.; strain GC 6189
  MIC Enterococcus faecalis (GC 6189): 32 µg/mL (≈ 21.7 µM)
Staphylococcus sp.; 5×10^5 CFU/mL
  MIC Coagulase Negative Staphylococcus (GC 4547): 8 µg/mL (≈ 5.43 µM)
  MIC Coagulase Negative Staphylococcus (GC 4548): 8 µg/mL (≈ 5.43 µM)
  MIC Coagulase Negative Staphylococcus (GC 4549): 8 µg/mL (≈ 5.43 µM)
  MIC Coagulase Negative Staphylococcus (GC 4551): 16 µg/mL (≈ 10.9 µM)
  MIC Coagulase Negative Staphylococcus (GC 6257): 8 µg/mL (≈ 5.43 µM)
  MIC Staphylococcus aureus (ATCC 29213): 16 µg/mL (≈ 10.9 µM)
  MIC Staphylococcus aureus (GC 1131): 16 µg/mL (≈ 10.9 µM)
  MIC Staphylococcus aureus (GC 3051): 16 µg/mL (≈ 10.9 µM)
  MIC Staphylococcus aureus (GC 3053): 16 µg/mL (≈ 10.9 µM)
  MIC Staphylococcus aureus (GC 4541): 8 µg/mL (≈ 5.43 µM)
  MIC Staphylococcus aureus (GC 4542): 16 µg/mL (≈ 10.9 µM)
  MIC Staphylococcus aureus (GC 4544): 16 µg/mL (≈ 10.9 µM)
  MIC Staphylococcus aureus (GC 4545): 16 µg/mL (≈ 10.9 µM)
  MIC Staphylococcus aureus-SMITH (GC 4543): 16 µg/mL (≈ 10.9 µM)
  MIC Staphylococcus haemolyticus (GC 4546): 16 µg/mL (≈ 10.9 µM)
Staphylococcus sp.; strain ATCC 29213
  MIC Staphylococcus aureus (ATCC 29213): 16 µg/mL (≈ 10.9 µM)
Staphylococcus sp.; strain GC 1131
  MIC Staphylococcus aureus (GC 1131): 16 µg/mL (≈ 10.9 µM)
Staphylococcus sp.; strain GC 3051
  MIC Staphylococcus aureus (GC 3051): 16 µg/mL (≈ 10.9 µM)
Staphylococcus sp.; strain GC 3053
  MIC Staphylococcus aureus (GC 3053): 16 µg/mL (≈ 10.9 µM)
Staphylococcus sp.; strain GC 4541
  MIC Staphylococcus aureus (GC 4541): 8 µg/mL (≈ 5.43 µM)
Staphylococcus sp.; strain GC 4542
  MIC Staphylococcus aureus (GC 4542): 16 µg/mL (≈ 10.9 µM)
Staphylococcus sp.; strain GC 4543
  MIC Staphylococcus aureus-SMITH (GC 4543): 16 µg/mL (≈ 10.9 µM)
Staphylococcus sp.; strain GC 4544
  MIC Staphylococcus aureus (GC 4544): 16 µg/mL (≈ 10.9 µM)
Staphylococcus sp.; strain GC 4545
  MIC Staphylococcus aureus (GC 4545): 16 µg/mL (≈ 10.9 µM)
Staphylococcus sp.; strain GC 4546
  MIC Staphylococcus haemolyticus (GC 4546): 16 µg/mL (≈ 10.9 µM)
Staphylococcus sp.; strain GC 4547
  MIC Coagulase Negative Staphylococcus (GC 4547): 8 µg/mL (≈ 5.43 µM)
Staphylococcus sp.; strain GC 4548
  MIC Coagulase Negative Staphylococcus (GC 4548): 8 µg/mL (≈ 5.43 µM)
Staphylococcus sp.; strain GC 4549
  MIC Coagulase Negative Staphylococcus (GC 4549): 8 µg/mL (≈ 5.43 µM)
Staphylococcus sp.; strain GC 4551
  MIC Coagulase Negative Staphylococcus (GC 4551): 16 µg/mL (≈ 10.9 µM)
Staphylococcus sp.; strain GC 6257
  MIC Coagulase Negative Staphylococcus (GC 6257): 8 µg/mL (≈ 5.43 µM)
Escherichia coli
  MIC Escherichi coli (GC 4560): 8 µg/mL (≈ 5.43 µM)
